The results in this text go back to US20070031889A1, “Method for rapidly detecting quinolone-resistant Salmonella ssp. and the probes and primers utilized therein” (Bureau of Food and Drug Analysis, Department of Health, …, priority 2004, published 2007).

The test system of data set [1] is single-stranded PCR products of Salmonella gyrA gene. The experiment in a line: Real-time PCR with melting curve analysis of gyrA4 hybridization probes. In kind it is binding, Salmonella spp. The protocol:
(§1) The bacterial strain to be tested was streak plated on XLD medium. After the purity of said strain was verified, the strain was grown in TSB broth at 35±1° C. for 18±2 hours. Following refrigerated centrifugation, Wizard® Genomic DNA Purification Kit was used to extract the genomic DNA. One microliter of the DNA extraction solution was added to the reaction mix (containing 0.5 μM primer set, 0.2 μM probe set, 4 mM MgCl2, and 1×LightCycler DNA Master hybridization mix) to a final volume of 20 μl, which was then placed in LightCycler (Roche Applied Science, Mannheim, Germany) for amplification and melting reaction of the hybrid of the PCR product with the hybridization probes.
Background: In qPCR the cycle at which signal appears reflects the starting amount.

For the next data set, the system named is Salmonella strains. The experiment in a line: Minimum inhibitory concentration (MIC) of quinolone antibacterials by E-test strips. Particulars: for MIC: Salmonella. In kind it is cell-based, Salmonella spp. The protocol:
The minimum inhibitory concentration was deterrnined by the E-test strips of quinolone antibacterials (AB BIODISC North America Inc., Solna, Sweden). The bacterial strain to be tested was streak plated on xylose lysin desoxycholate agar (XLD) (Merck kGaA, Darmstadt, Germany). After the purity of said strain was verified, the strain was grown on tryptic soy agar (TSA) medium (Merck kGaA, Darrnstadt, Germany) at 35-37° C. for 16-18 hours and then suspended in sterile water. The bacterial concentration was adjusted to 80% of turbidity (corresponding to 0.5 MacFarland turbidity standard, and the bacterial content is approximately […]) using Vitek Special DR 100 Colorimeter (HACH Company, Colorado, USA). Then, 0.1 ml of the bacterial aliquot was placed on the prepared Mueller-Hinton (M-H) agar medium (having the diameter of 9 cm and the thickness of 4.0±0.5 mm) (Merck kGaA, Darmstadt, Germany) and the aliquot was spread evenly on the medium by a sterilized glass rod. The medium plate stood still for 10 to 15 minutes to ensure that the bacterial aliquot completely penetrated into the medium. Thereafter, a sterilized tweezer was used to clip the E region of the E-test antibacterial test strip which was then placed on the inoculated M-H medium plate. Two E-test trips were placed parallel to each other and symmetrically on each medium plate. Said medium plates were then incubated at 35-37° C. for 16-18 hours. The results were determined based on the standards from National Committee for Clinical Laboratory Standard (NCCLS, 2001), USA. Each antibacterial agent was tested in a duplicate experiment, and E. coli ATCC 25922/CCRC 11509 was used as the control of the tested strains in each experiment.

Data set [2] relates to single-stranded PCR products of parC gene. The experiment in a line: Real-time PCR with melting curve analysis of parC238 hybridization probes. The data set is classed as binding, Salmonella spp. The protocol:
as §1

[3] abbreviates: Table 4, gyrA single point mutation strains (52).

In brackets after ≈: the same amount, converted by molar mass. Several values for one entry are separate records, joined by “and”; a condition that tells them apart may be missing. Identical values can stand only once. Like-named read-outs stand apart in the source and are kept apart here. {LC640} = LightCycler Red 640 dye label (LCRED640); {FL} = fluorescein label (FL); {P} = phosphate

With “gyrA4: hybridization probe set of gyrA4-FL (SEQ ID NO: 5) and gyrA4-LC640 (SEQ ID NO: 6) (DNA 1 CGATTCCGCAGTGTATGACACC; DNA 2 CGTTCGTATGGCGCAGCCATTCTCG; DNA 1: DNA, 3' {FL}, backbone not given here; DNA 2: DNA, 5' {LC640}, 3' {P}, backbone not given here; listed as Salmonella sp.)”, the “Tm ± SD (CV %)” value in data set [1] (C248A mutant strains) was 58.6±0.3 °C and 58.6 ± 0.3 (0.51) ° C; in data set [1] (C248T mutant strains), 59.1±0.2 °C and 59.1 ± 0.2 (0.40) ° C; in data set [1] (G259A mutant strains) it was 59.8±0.4 °C and 59.8 ± 0.4 (0.60) ° C; in data set [1] (G259T mutant strains), 59.6±0.4 °C and 59.6 ± 0.4 (0.68) ° C; in data set [1] (Wild type strains), 63.6±1.0 °C and 63.6 ± 1.0 (1.62) ° C; in data set [1] (double point mutation C248T/A260G strains), 54.6±0.2 °C and 54.6 ± 0.2 (0.27) ° C. Moreover, the “Tm ± SD (CV %)” value in data set [1] (single point mutation strains (C248A, C248T, G259A, G259T)) was 59.2±0.5 °C and 59.2 ± 0.5 (0.89) ° C.
In the case of `O=C(O)c1cn(C2CC2)c2cc(N3CCNCC3)c(F)cc2c1=O` [ciprofloxacin], the “Susceptibility Cp” value is listed as “S/R” in the data set on Salmonella strains (Mutant strains (75)) and “S (S, susceptibility, MICs 0.006-0.38 μg/ml)” in the data set on Salmonella strains (Wild type strains (45)). For the same molecule, the Susceptibility entry is recorded as “S” in the data set on Salmonella strains (Table 4, Wild type strains); “S” with Salmonella strains (setting [3]); “S” in the data set with Salmonella strains ({}). The Ciprofloxacin susceptibility result is given as “Resistant” with Salmonella strains (parC mutant (A238C) strains (23)) and “Sensitive” in the data set with Salmonella strains (parC wild type strains (97)).
Regarding `CCn1cc(C(=O)O)c(=O)c2ccc(C)nc21` [nalidixic acid], in the data set on Salmonella strains (120 strains from animal foods and clinical samples), the “share of the 120 Salmonella strains tested that were resistant” value is on record as 62.5%. Besides, the MIC was ≥ 256 µg/mL in the data set on Salmonella strains (read-out: MICs, resistant strains (gyrA mutants)) and 2.5 to 7 µg/mL (≈ 10.8 to 30.1 µM) in the data set on Salmonella strains (susceptible strains (wild type), read-out: MICs). Further, the Susceptibility result in the data set with Salmonella strains (Table 4, Wild type strains) was “S”; in the data set with Salmonella strains (setting [3]), “R”; in the data set on Salmonella strains ({}) it was “R”. Moreover, the “Susceptibility NA” value is “S (S, susceptibility, MICs 2.5˜7 μg/ml)” with Salmonella strains (Wild type strains (45)) and “R (R, resistance, MICs ≧ 256 μg/ml)” with Salmonella strains ({}).
Take “parC238: hybridization probe set of parC238-FL (SEQ ID NO: 7) and parC238-LC640 (SEQ ID NO: 8) (DNA 1 CGACCGCGCCTGCT; DNA 2 GAAGCCATGGTGCTGATGGCG; DNA 1: DNA, 3' {FL}, backbone not given here; DNA 2: DNA, 5' {LC640}, 3' {P}, backbone not given here; listed as Salmonella sp.)”: the “Tm ± SD (CV %)” value in data set [2] (parC mutant (A238C) strains) is 61.4±0.3 °C; in data set [2] (parC wild type strains), 47.4±0.5 °C.
